This note sets out measurements from patent US5091305A, “Bile acid sulfate sulfatase, process for its preparation and method for assaying bile acid” (Marukin Shoyu Co., Ltd., priority 1988, dated 1992).

In assay [1] the test system is bile acid sulfate sulfatase. Kind of assay: Inhibition and activation of the present Enzyme by additives. The format is biochemical, Pseudomonas testosteroni. The procedure:
(§1) The physicochemical properties of the present Enzyme are further described below. The activity of the present Enzyme is measured as follows. That is, into a quartz cell are placed 0.1 ml of 2.5 mM aqueous solution of lithocholic acid 3α-sulfate (Sigma), 0.2 ml of 15 mM aqueous solution of β-NAD (Oriental Yeast), 1.0 ml of 0.1M tris-hydrochloric acid buffer solution (pH 8.0) and 1.55 ml of distilled water, and after equilibrating at 30° C., 0.05 ml of β-hydroxysteroid dehydrogenase (Sigma) solution (10 U/ml) and 0.1 ml of a solution of the present Enzyme are sequentially added thereto and the reaction is effected at 30° C., and the increase of the absorbance at 340 nm in the initial stage of the reaction is determined. Under these conditions, the enzyme activity producing 1 μmol of NADH per minute is defined as 1 unit.

The test system of assay [2] is bile acid sulfate sulfatase. Nature of the assay: Activity of the present Enzyme on substrates (coupled β-hydroxysteroid dehydrogenase/NADH assay, absorbance at 340 nm). The class given is biochemical, Pseudomonas testosteroni. As to conditions: for Relative activity (substrate specificity): lithocholic acid 3α-sulfate = 100. The protocol:
as §1
(b) Substrate specificity: Acting on 3α-sulfates of nonconjugated bile acids, and 3α-sulfates each of glycine-conjugated and taurine-conjugated bile acids.

Setting [3] is: effect of the substance on the present Enzyme.
Setting [4] is: additive 2 mM, no additive = 100.
Where [5] appears, read: additive 1 mM, no additive = 100.

Read-outs that look alike come from different tables or passages of the source.

`O=C(O)c1cc[c]([Hg][Cl])cc1` [p-Chloromercuribenzoate]: in assay [1] (additive 0.2 mM, no additive = 100), the “Relative Activity” value is recorded as 98%. In addition, the “Inhibition and activation (in words)” value in assay [1] (setting [3]) was “Hardly inhibited”.

Regarding `C[C@H](CCC(=O)NCCS(=O)(=O)O)[C@H]1CC[C@H]2[C@@H]3CC[C@@H]4C[C@H](OS(=O)(=O)O)CC[C@]4(C)[C@H]3CC[C@]12C` [Taurolithocholic acid 3α-sulfate], the “Relative activity (substrate specificity)” value in assay [2] stood at 2%.

For `O=C(O)CI` [Monoiodoacetic acid], the “Inhibition and activation (in words)” value in assay [1] is given as “Hardly inhibited”. Besides, in assay [1] (2000 µM), the “Relative Activity” value is 98%.

For the compound `O=S(=O)([O-])[O-].[Mg+2]` [Magnesium sulfate], the “Relative Activity” value in assay [1] (setting [4]) is 101%.

Take `C[C@H](CCC(=O)NCC(=O)O)[C@H]1CC[C@H]2[C@@H]3CC[C@@H]4C[C@H](OS(=O)(=O)O)CC[C@]4(C)[C@H]3CC[C@]12C` [Glycolithocholic acid 3α-sulfate]: in assay [2], the “Relative activity (substrate specificity)” value is given as 11%.

For the compound `C[C@H](CCC(=O)O)[C@H]1CC[C@H]2[C@@H]3[C@H](O)C[C@@H]4C[C@H](OS(=O)(=O)O)CC[C@]4(C)[C@H]3C[C@H](O)[C@]12C` [Cholic acid 3α-sulfate], in assay [2], the “Relative activity (substrate specificity)” value was 238%.

As for `[N-]=[N+]=[N-]` [Sodium azide], the “Relative Activity” value in assay [1] (additive 10 mM, no additive = 100) was determined as 100%.

Regarding `[F-].[Na+]` [Sodium fluoride], the “Relative Activity” value in assay [1] (setting [4]) came to 98%.

With 4-Nitrocatechol sulfate, the “Relative activity (substrate specificity)” value in assay [2] was 0%.

In the case of `[Cl][Cd][Cl]` [Cadmium chloride], the “Relative Activity” value in assay [1] (setting [4]) is on record as 98%.

For `O=S(=O)([O-])[O-].[Zn+2]` [Zinc sulfate], the “Relative Activity” value in assay [1] (setting [4]) was determined as 95%.

For `O=S(=O)([O-])[O-].[Cu+2]` [Copper sulfate], the “Relative Activity” value in assay [1] (setting [4]) worked out at 94%.

For the compound `c1ccc(-c2ccccn2)nc1` [α,α'-Dipyridyl], in assay [1] (setting [5]), the “Relative Activity” value is recorded as 97%.

As for `[Cl][Mn][Cl]` [Manganese chloride], in assay [1] (setting [4]), the “Relative Activity” value turned out to be 111%. Further, in assay [1] (setting [3]), the “Inhibition and activation (in words)” value is given as “Activated”.

For `[Cl][Co][Cl]` [Cobalt chloride], the “Relative Activity” value in assay [1] (setting [4]) was determined as 92%.

For `c1cnc2c(c1)ccc1cccnc12` [o-Phenanthroline], in assay [1] (setting [5]), the “Relative Activity” value is 37%. The “Inhibition and activation (in words)” value in assay [1] (setting [3]) was “inhibited”.

Consider `O=C(O)CN(CCN(CC(=O)O)CC(=O)O)CC(=O)O` [EDTA], for which the “Relative Activity” value is reported as 38% in assay [1] (setting [5]) and 25% in assay [1] (additive 5 mM, no additive = 100). Moreover, in assay [1] (setting [3]), the “Inhibition and activation (in words)” value was “inhibited”.

As for `C[C@H](CCC(=O)O)[C@H]1CC[C@H]2[C@@H]3CC=C4C[C@@H](OS(=O)(=O)O)CC[C@]4(C)[C@H]3CC[C@]12C` [3β-Hydroxy-5-cholenic acid 3-sulfate], the “Relative activity (substrate specificity)” value in assay [2] worked out at 0%.

In the case of `C[C@H](CCC(=O)O)[C@H]1CC[C@H]2[C@@H]3CC[C@@H]4C[C@H](OS(=O)(=O)O)CC[C@]4(C)[C@H]3CC[C@]12C` [Lithocholic acid 3α-sulfate], in assay [2] (Km of the present Enzyme to the substrate), the Km was 6 µM. Moreover, the “Relative activity (substrate specificity)” value in assay [2] is on record as 100%.

Turning to `[Cl][Hg][Cl]` [Mercuric chloride], the “Relative Activity” value turned out to be 90% in assay [1] (setting [5]) and 71% in assay [1] (setting [4]).
